In ChEMBL document CHEMBL1255498, “Moxifloxacin pharmacokinetics/pharmacodynamics and optimal dose and susceptibility breakpoint identification for treatment of disseminated Mycobacterium avium infection” (Antimicrob Agents Chemother, 2010):
≈ marks a conversion by molar mass, not a printed value.

Legend:
[1] = Antimicrobial activity against Mycobacterium avium subsp. hominissuis ATCC 700898 infected in human THP1 cells in presence of 10% FBS; assay type: functional, cell-based; conditions: ATCC 700898, THP-1
[2] = microbe, parasite or virus in culture; conditions: Mycobacterium avium, ATCC 700898
[3] = microbe, parasite or virus in culture; conditions: Mycobacterium avium, ATCC 700898, 168 h
[4] = Antimicrobial activity against Mycobacterium avium subsp. hominissuis ATCC 700898 infected in human THP1 cells in presence of 2% FBS; assay type: functional, cell-based; conditions: ATCC 700898, THP-1
[5] = Antimicrobial activity against Mycobacterium avium subsp. hominissuis ATCC 700898 infected in human THP1 cells in presence of 20% FBS; assay type: functional, cell-based; conditions: ATCC 700898, THP-1
Mycobacterium avium = experiment: Antimicrobial activity against Mycobacterium avium by CLSI method
[6] = microbe, parasite or virus in culture; conditions: Mycobacterium avium, ATCC 700898, 168 h; remark: listed apart in the source

Q: Which EC50 [1] does the source give for `COc1c(N2C[C@@H]3CCCN[C@@H]3C2)c(F)cc2c(=O)c(C(=O)O)cn(C3CC3)c12` [MOXIFLOXACIN] here?
A: The EC50 was 5.07 µg/mL.

Q: What about the MIC [2] of the same molecule?
A: The MIC was 1 µg/mL (≈ 2.49 µM).

Q: What about the EC50 [3] of the same molecule?
A: Its EC50 is 8.24 µg/mL (≈ 20.5 µM).

Q: And the EC50 [4]?
A: The EC50 was 8.09 µg/mL.

Q: What about the EC50 [5] of the same molecule?
A: The EC50 was 5.21 µg/mL.

Q: What about the MIC (Mycobacterium avium) of the same molecule?
A: Its MIC is 1 µg/mL (≈ 2.49 µM).

Q: What about the EC50 [6] of the same molecule?
A: Its EC50 is no less than 32 µg/mL.
